The term EC50 denotes the concentration needed to bring the measured effect to its halfway point. A word on the CC50: it is the concentration at which the toxic effect on the cells reaches its halfway point. Usually IC50 stands for the midpoint of a concentration-inhibition curve. Usually AC50 stands for the concentration giving half of the maximal activity seen.

Results on nine compounds are retold here after ChEMBL document CHEMBL1201862, “PubChem BioAssay data set” (2004).

Calls of active or inactive are those of the source.

The subject of experiment [1] is BJ. Put plainly: BJ-TERT fibroblast viability loss – cell-based, RAS-independent, luminescence, dose response (AID 1933). Type of experiment: functional. Particulars: Homo sapiens.
For another experiment, the target named is Beta-galactosidase (Escherichia coli, UniProt Q8VNN2). Put plainly: PubChem AID 485352. Type of experiment: functional.
The test system of experiment [2] is Vero. Put plainly: mammalian cell viability reduction – secondary assay, cytotoxicity control for West Nile virus antiviral project, dose response (AID 1650). The format is functional. Particulars: Chlorocebus sabaeus.
The test system of experiment [3] is BJ. Nature of the experiment: cells. Particulars: Homo sapiens. The format is functional, cell-based.
Experiment [4] is described as follows: Luminescence-based dose response cell-based high throughput screening assay for cytotoxic compounds using the IEC-6 intestinal epithelial cell line. [Related pubchem assays: 1858 (Summary AID.), 1825 (Counterscreen.), 1907 (Confirmation screen.)]. The format is functional.
The target of experiment [5] is T1, Type-1 angiotensin II receptor (Homo sapiens, UniProt P30556).
T1 sequence (P30556 whole entry): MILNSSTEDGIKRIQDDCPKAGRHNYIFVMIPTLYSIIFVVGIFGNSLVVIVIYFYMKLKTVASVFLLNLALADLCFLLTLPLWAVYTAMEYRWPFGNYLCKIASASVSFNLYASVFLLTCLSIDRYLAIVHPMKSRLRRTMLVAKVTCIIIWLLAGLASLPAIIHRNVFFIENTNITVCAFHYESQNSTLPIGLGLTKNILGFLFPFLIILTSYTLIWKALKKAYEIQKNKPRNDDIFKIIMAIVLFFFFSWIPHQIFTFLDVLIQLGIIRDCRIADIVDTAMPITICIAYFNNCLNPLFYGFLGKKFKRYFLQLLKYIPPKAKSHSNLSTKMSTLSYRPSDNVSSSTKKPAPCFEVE
Put plainly: antagonism of angiotensin II type 1 receptor – cell-based, uHTS hits, selectivity assay for APJ receptor antagonist project, dose response (AID 463214).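 Further: antagonist potency against angiotensin II stimulated AT1 response.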 Type of experiment: functional.

The subject of experiment [6] is BJ. Put plainly: BJ-TERT-LT-ST fibroblast viability loss – cell-based, RAS-independent, luminescence, dose response (AID 1935).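 Further: BJ fibroblasts immortalized with TERT plus LT and ST oncogenes.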 Type of experiment: functional. Particulars: Homo sapiens.
Experiment [7] is described as follows: DRD fibroblast viability loss – cell-based, non-viral oncogenic, luminescence, dose response (AID 1934). Type of experiment: functional. Particulars: Homo sapiens.
The next experiment has as its target Nonstructural protein 1 (Influenza A virus, UniProt Q194T2). Type of experiment: functional, Influenza A virus (A/California/07/2009(H1N1)).
Experiment [8] concerns Vero. Put plainly: cells. The format is functional, cell-based. Particulars: Chlorocebus sabaeus.
Experiment [9] has as its system BJ. Nature of the experiment: growth inhibition of engineered Ras-driven BJ cells – cell-based, alamar blue fluorescence, cherrypicked samples, dose response (AID 2631).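 Further: confirmatory dose-response assay in RAS-dependent BJ fibroblasts engineered with TERT, LT and ST, with cytotoxicity read by fluorescence.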 The format is functional. Particulars: Homo sapiens. (In general: Alamar Blue is a resazurin reagent that responds to reducing activity.)
In a further experiment the test system is INS1. Nature of the experiment: INS-1E survival protection against cytokine death – cell-based, luminescence, retest, dose response (AID 449756).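 Further: cell death triggered by IL-1 beta plus TNF-alpha plus IFN-gamma mixture; protective hits raise ATP signal compared with cytokine alone wells.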 The format is functional. Particulars: Rattus norvegicus.
Experiment [10] has as its system Vero. Put plainly: cells. The format is functional. Particulars: Chlorocebus sabaeus.
Experiment [11] is described as follows: Trypanosoma cruzi growth suppression in host cells – NIH3T3 host cells, beta-gal luminescence, confirmation (AID 2044).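 Further: intracellular parasites grown in NIH/3T3 mouse fibroblasts as host cells; luminescent beta-galactosidase reporter signal from transgenic T. cruzi replicating inside host cells; inhibitors lower the luminescence signal.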 Type of experiment: functional, cell-based.
Experiment [12] is described as follows: NIH3T3 cell viability loss – ATP luminescence, mouse fibroblasts, counter-screen, dose response (AID 2010).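 Further: cells exposed to compound for about 90 hours before reading.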 The format is functional, cell-based.
In experiment [13] the target is 5-hydroxytryptamine receptor 1A (Homo sapiens, UniProt P08908). Type of experiment: functional.
Experiment [14] deals with Peroxisome proliferator-activated receptor gamma/Nuclear receptor coactivator 1 (Homo sapiens, UniProt P37231). Put plainly: TR-FRET dose response biochemical High Throughput Screening assay for agonists of the steroid receptor coactivator 1 (SRC-1) recruitment by the peroxisome proliferator-activated receptor gamma (PPAR gamma): non-selective agonists. [Related pubchem assays (depositor defined):AID1300, AID1808, AID504735, AID631]. The format is protein assay. Background: In TR-FRET formats the signal depends on donor and acceptor labels being close together.

Experiment [15] deals with Ubiquitin carboxyl-terminal hydrolase BAP1 (Homo sapiens, UniProt Q92560). Put plainly: inhibition of BAP1 ubiquitin hydrolase activity – biochemical, dose response (AID 714). The format is functional.
The target in experiment [16] is Peroxisome proliferator-activated receptor gamma/Nuclear receptor coactivator 3 (Homo sapiens, UniProt P37231). Put plainly: TR-FRET dose response biochemical High Throughput Screening assay for agonists of the steroid receptor coactivator 3 (SRC-3) recruitment by the peroxisome proliferator-activated receptor gamma (PPAR gamma): non-selective agonists. [Related pubchem assays: 1301 (Confirmation screen.), 1048 (Primary screen.)]. The format is functional.

The target in experiment [17] is Peroxisome proliferator-activated receptor gamma/Nuclear receptor coactivator 2 (Homo sapiens, UniProt P37231). Nature of the experiment: TR-FRET dose response biochemical High Throughput Screening assay for agonists of the steroid receptor coactivator 2 (SRC-2) recruitment by the peroxisome proliferator-activated receptor gamma (PPAR gamma): non-selective agonists. [Related pubchem assays: 1297, 1032 ]. Type of experiment: functional.

Another experiment concerns the target T2, Estrogen receptor (Homo sapiens, UniProt P03372).
T2 sequence (P03372 whole entry): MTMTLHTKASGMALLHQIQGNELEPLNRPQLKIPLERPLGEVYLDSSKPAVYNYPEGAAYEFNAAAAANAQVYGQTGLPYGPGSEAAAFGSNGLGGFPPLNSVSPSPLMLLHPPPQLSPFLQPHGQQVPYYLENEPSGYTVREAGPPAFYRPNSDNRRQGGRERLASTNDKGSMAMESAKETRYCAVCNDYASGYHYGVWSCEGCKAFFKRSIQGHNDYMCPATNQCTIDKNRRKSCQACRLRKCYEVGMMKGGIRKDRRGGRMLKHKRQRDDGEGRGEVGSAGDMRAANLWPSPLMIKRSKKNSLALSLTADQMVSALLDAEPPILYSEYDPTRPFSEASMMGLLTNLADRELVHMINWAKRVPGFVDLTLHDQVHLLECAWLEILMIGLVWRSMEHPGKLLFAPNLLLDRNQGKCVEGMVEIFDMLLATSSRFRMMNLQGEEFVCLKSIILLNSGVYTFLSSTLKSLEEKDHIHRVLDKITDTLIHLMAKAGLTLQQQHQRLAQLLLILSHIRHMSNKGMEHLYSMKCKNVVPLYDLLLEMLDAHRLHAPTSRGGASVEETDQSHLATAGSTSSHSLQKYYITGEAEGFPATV

The target in a further experiment is Estrogen receptor beta (Homo sapiens, UniProt Q92731).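 Further: recombinant ER-beta bound to coactivator SRC1 peptide in presence of estradiol agonist; inhibitors block coactivator peptide binding and lower the FRET signal.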
The nature of experiment [18]: Luminescent dose response cell-based high throughput screening assay for inhibitors of the Janus kinase 2 mutant JAK2V617F. [Related pubchem assays: 1446 (Primary screen.), 1521 (Confirmation assay.), 1486 (Counter screen.)]. Type of experiment: functional. For orientation: A counterscreen serves to expose hits that act by an unwanted route or on another target.
Experiment [19] deals with Voltage-gated inwardly rectifying potassium channel KCNH2 (Homo sapiens, UniProt Q12809). Nature of the experiment: concentration-dependent hERG rescue from blockers – cell-based, thallium flux, dose response (AID 2121). The format is ADME.
Experiment [20] has as its system Vero. Nature of the experiment: Vero 76 cell viability after compound exposure – Vero 76 cells, synthesized analogs, cytotoxicity control for West Nile virus antiviral project, SAR follow-up (AID 2414). The format is functional. Particulars: Chlorocebus sabaeus.
For experiment [21], the system named is Vero. Nature of the experiment: Vero cell viability after compound exposure – synthesized analogs, set II, cytotoxicity control for West Nile virus antiviral project, SAR follow-up (AID 2402). Type of experiment: functional. Particulars: Chlorocebus sabaeus.
Experiment [22] concerns the target Diphosphomevalonate decarboxylase (Streptococcus pneumoniae serotype 2 (strain D39 / NCTC 7466), UniProt Q9FD53). Nature of the experiment: diphosphomevalonate decarboxylase inhibitor confirmation – biochemical, cuvette format, coupled NADH fluorescence (AID 1028). The format is functional.

Chain of Diphosphomevalonate decarboxylase (Q9FD53 whole entry): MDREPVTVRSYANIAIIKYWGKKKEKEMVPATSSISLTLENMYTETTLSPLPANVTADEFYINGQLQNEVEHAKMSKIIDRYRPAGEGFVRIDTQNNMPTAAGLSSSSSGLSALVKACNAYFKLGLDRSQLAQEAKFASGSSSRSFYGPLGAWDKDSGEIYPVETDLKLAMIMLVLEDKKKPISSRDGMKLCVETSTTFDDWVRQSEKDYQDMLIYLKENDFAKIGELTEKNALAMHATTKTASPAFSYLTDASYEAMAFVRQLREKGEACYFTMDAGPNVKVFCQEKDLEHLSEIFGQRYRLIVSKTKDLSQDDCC
Chain of Beta-galactosidase (Q8VNN2 whole entry): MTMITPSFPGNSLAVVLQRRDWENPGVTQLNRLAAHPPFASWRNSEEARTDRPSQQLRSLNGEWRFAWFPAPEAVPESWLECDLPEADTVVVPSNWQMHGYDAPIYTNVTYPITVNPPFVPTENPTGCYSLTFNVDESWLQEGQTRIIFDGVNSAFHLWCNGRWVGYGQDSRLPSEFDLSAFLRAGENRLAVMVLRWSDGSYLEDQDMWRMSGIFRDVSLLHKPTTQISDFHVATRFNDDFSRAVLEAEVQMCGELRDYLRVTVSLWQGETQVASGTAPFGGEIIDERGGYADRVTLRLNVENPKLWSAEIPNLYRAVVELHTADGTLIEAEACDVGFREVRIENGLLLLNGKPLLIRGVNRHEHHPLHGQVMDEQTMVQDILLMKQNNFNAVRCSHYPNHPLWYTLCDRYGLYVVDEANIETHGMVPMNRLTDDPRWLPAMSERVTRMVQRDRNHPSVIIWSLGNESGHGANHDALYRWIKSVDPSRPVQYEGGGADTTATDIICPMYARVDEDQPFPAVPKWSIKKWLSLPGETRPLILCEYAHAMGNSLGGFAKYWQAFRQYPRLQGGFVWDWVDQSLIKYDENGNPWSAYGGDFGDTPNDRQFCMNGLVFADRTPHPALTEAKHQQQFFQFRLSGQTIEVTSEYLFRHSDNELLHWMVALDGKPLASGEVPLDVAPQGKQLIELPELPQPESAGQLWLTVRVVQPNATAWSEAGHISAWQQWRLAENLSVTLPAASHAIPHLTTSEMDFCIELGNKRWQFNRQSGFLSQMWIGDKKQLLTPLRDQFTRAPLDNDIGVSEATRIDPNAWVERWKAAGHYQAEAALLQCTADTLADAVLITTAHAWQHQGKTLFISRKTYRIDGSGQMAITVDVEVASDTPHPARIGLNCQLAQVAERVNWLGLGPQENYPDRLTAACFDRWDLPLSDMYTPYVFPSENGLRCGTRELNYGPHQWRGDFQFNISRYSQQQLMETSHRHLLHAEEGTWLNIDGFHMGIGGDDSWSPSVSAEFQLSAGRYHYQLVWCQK
Chain of Peroxisome proliferator-activated receptor gamma/Nuclear receptor coactivator 1 (P37231 whole entry): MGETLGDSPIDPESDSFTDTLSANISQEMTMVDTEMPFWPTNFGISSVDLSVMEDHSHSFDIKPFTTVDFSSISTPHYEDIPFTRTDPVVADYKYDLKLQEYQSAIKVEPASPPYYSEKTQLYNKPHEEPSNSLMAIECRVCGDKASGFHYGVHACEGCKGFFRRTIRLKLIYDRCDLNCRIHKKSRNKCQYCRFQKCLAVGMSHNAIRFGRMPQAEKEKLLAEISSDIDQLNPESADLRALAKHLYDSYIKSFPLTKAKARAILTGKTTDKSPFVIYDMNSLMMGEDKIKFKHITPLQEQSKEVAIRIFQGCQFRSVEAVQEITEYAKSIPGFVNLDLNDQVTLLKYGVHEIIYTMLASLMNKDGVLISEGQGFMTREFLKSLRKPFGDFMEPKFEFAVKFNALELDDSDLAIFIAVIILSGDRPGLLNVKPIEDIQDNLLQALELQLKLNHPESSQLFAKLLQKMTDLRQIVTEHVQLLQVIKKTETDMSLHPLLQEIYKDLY
Chain of Peroxisome proliferator-activated receptor gamma/Nuclear receptor coactivator 1 (Q15788 whole entry, further chain): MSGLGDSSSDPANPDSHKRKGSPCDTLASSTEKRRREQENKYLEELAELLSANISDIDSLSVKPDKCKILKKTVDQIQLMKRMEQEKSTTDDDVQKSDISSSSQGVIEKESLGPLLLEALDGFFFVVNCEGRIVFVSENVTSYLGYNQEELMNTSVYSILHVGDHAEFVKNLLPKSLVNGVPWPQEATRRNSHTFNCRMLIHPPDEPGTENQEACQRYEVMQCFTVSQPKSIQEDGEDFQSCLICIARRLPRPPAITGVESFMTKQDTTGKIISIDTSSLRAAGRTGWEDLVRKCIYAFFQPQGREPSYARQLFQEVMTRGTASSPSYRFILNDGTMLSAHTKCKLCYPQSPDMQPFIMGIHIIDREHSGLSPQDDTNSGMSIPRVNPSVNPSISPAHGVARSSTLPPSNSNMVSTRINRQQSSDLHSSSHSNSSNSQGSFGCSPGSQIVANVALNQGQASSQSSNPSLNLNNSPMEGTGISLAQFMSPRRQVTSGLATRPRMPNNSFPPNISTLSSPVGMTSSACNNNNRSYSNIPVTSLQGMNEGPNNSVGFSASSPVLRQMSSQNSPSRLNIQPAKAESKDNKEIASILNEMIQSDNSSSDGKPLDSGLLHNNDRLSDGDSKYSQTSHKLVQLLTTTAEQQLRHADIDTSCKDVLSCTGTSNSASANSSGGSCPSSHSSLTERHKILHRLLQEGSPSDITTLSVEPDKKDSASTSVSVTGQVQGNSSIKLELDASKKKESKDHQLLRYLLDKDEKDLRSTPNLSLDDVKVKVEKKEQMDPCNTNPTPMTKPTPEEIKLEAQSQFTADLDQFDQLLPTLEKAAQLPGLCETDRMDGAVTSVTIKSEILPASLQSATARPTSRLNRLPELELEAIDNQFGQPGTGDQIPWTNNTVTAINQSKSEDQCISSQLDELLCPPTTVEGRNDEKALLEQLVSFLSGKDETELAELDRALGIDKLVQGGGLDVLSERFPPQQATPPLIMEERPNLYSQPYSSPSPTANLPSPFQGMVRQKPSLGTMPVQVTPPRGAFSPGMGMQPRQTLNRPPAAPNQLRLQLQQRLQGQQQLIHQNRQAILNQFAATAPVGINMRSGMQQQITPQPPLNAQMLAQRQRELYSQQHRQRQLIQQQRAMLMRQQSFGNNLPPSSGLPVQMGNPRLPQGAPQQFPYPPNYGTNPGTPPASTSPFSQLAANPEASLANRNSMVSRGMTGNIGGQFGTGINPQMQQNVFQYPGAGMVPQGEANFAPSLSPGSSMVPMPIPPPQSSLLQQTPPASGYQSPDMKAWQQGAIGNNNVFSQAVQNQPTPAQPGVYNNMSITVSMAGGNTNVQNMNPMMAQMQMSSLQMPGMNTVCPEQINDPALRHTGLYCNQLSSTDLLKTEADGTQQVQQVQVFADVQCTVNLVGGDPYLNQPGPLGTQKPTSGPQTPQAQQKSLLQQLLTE
Chain of Ubiquitin carboxyl-terminal hydrolase BAP1 (Q92560 whole entry): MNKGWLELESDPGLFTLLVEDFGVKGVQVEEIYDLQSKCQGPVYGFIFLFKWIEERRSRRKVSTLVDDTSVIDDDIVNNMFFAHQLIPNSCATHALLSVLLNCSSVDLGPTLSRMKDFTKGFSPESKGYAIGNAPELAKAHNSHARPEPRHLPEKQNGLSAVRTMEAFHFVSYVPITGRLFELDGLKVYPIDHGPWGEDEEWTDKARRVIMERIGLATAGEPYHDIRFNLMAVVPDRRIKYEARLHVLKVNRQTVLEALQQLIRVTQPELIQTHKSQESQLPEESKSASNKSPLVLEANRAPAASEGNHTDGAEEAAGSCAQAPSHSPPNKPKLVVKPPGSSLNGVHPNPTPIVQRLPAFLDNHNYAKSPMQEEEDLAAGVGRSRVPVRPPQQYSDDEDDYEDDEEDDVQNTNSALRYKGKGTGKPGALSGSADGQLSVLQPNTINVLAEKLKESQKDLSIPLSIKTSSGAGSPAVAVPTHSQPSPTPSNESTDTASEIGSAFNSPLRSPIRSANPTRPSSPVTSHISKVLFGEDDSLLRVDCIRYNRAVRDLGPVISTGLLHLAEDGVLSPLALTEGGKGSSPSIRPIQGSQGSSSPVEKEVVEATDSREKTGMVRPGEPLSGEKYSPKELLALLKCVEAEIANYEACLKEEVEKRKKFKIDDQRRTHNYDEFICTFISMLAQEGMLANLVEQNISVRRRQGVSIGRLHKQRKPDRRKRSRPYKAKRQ
Chain of Nonstructural protein 1 (Q194T2 whole entry): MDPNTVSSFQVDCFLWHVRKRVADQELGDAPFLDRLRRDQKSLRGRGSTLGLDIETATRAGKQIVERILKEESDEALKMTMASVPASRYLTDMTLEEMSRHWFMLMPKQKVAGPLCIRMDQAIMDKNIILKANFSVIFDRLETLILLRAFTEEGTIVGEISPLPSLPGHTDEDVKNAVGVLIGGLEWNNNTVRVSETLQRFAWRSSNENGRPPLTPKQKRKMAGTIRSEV
Chain of 5-hydroxytryptamine receptor 1A (P08908 whole entry): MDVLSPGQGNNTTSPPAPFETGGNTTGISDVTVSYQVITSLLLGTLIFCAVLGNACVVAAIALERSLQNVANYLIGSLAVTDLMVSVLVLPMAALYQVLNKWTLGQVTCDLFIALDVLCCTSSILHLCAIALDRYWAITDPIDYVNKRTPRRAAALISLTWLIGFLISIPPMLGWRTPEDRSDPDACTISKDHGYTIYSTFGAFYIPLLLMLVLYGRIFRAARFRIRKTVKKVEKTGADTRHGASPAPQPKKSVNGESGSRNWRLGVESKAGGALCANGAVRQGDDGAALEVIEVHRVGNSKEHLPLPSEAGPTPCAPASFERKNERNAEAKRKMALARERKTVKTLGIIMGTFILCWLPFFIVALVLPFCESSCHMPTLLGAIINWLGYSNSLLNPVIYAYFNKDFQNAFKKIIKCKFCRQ

Take `C/C(=N\NC(=O)c1ccc(F)cc1)c1ccccn1`: the EC50 in the experiment on BJ [1] is 0.844 µM (inconclusive); at Beta-galactosidase, > 40 µM (inactive); in the experiment with BJ [3], 1.98 µM (active); in the experiment with BJ [6] it was 3.53 µM (active); in [7], 5.06 µM (active); in the experiment on BJ [9], 0.475 µM (active). Moreover, the CC50 is 2.28 µM (active) in the experiment with Vero [2] and 2.98 µM (active) in the experiment on Vero [10]. Also, the IC50 in [4] is 0.54 µM (active); in experiment [5], 1.96 µM (active); on Nonstructural protein 1 it was 3 µM (active); in the experiment with Vero [8], > 25 µM (active). In addition, in the experiment with INS1, the AC50 was 0.523 µM (active).
As for `CC(NS(=O)(=O)c1ccc(CCC(=O)N2CCN(C)CC2)cc1)c1ccccc1` (configuration not stated), the values for the EC50 (in experiment [11]; in [12]; in the experiment “cells”) were < 0.1 µM (active), > 60 µM (not active) and 0.349 µM (active), respectively.
For the compound `CC(CCc1ccccc1)NC(=O)CSc1nc(N)cc(N)n1` (configuration not stated), the half-maximal effective concentration (EC50) in experiment [13] was > 50 µM (not active).
Take `O=C(Nc1nnc(-c2ccco2)s1)C1CCN(S(=O)(=O)c2ccc(Cl)cc2)CC1`: the EC50 in experiment [14] was 56.6 µM (inactive); in experiment [16] it was > 79.4 µM (not active); in experiment [17], 31.4 µM (not active). The IC50 in experiment [15] is on record as > 50 µM (not active).
Take `CC(=N)/C(C#N)=C(/O)CSc1nnc(Cc2ccccc2F)n1N`: the IC50 is > 50 µM (not active) at Estrogen receptor and 13.6 µM (active) at Estrogen receptor beta.
In the case of `Cc1nn(Cc2ccc(Cl)cc2Cl)c(C)c1NC(=O)CCl`, the IC50 in experiment [18] is 2.44 µM (active). Further, the EC50 in the experiment on BJ [1] is 8.35 µM (active); in the experiment with BJ [3], 21.2 µM (active); in the experiment on BJ [6] it was > 150 µM (inconclusive); in experiment [7], 12.1 µM (active).
Regarding `COc1ccc(OC)c(NC(=S)NC(=O)c2ccc(Br)o2)c1`, the EC50 in experiment [19] is 0.01 µM (active).
With `O=C(CSc1nc2cccc(I)c2c(=O)n1-c1ccccc1)Nc1ccc2c(c1)CCC2`, the CC50 with Vero [20] was > 133 µM (active); with Vero [21], > 200 µM (active).
As for `O=C(c1cccc(-n2sc3ccccc3c2=O)c1)N1CCCCC1`, the IC50 in experiment [22] was 13.6 µM (active).
